Assay results reported in patent US11358969B2, “Indole AHR inhibitors and uses thereof” (Ikena Oncology, Inc., priority 2017, dated 2022).

Target: T1, AHR (UniProt P35869)
T1 construct: IC50
T1 sequence (P35869 1-848): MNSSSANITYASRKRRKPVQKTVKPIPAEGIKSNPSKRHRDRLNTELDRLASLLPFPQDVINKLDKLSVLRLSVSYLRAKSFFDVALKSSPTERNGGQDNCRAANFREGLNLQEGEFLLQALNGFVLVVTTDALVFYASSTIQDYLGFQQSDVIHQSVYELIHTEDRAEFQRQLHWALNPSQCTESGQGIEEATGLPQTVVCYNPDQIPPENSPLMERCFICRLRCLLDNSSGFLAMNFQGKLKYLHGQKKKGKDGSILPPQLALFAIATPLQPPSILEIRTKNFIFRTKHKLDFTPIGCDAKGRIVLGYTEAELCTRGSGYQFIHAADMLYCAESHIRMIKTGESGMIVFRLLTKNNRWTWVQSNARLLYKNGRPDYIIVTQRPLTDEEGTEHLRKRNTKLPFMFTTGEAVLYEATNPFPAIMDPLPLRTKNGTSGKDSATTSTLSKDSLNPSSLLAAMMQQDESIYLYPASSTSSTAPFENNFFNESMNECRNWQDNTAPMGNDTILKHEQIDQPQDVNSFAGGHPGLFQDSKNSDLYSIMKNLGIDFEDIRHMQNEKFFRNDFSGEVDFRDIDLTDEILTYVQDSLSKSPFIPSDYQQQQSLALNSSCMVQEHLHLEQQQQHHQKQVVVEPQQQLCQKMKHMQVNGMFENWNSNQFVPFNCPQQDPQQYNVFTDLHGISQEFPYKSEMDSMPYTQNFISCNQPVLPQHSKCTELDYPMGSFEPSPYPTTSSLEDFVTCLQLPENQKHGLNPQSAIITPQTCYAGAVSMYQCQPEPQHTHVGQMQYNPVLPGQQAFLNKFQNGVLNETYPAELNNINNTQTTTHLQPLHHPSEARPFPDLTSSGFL
Assay: DRE-Luciferase Reporter Assay (Alternate Method) (Example 1B)
Assay type: cell-based, murine or human
Conditions: cell line and AHR activating ligand not specified
Method: AHR binds to Dioxin Responsive Elements (DRE) upstream of genes that it activates. One measure of AHR activity is activation of a reporter gene, such as luciferase, downstream of one or multiple DRE elements. Luciferase activity will reflect activation and inhibition of AHR in the cells expressing his reporter.
Murine Hepa1-6 or Hepa-1c1c7 or other murine cell line with a DRE-luciferase reporter either stably or transiently transfected were plated in media in plates (96-well, 384-well or other plates) and incubated overnight at 37° C. in a CO2 incubator or compound and agonist were added at the time of plating. Likewise, human HepG2 or other human cell line with a DRE-luciferase reporter either stably or transiently transfected were plated in media in plates (96-well, 384-well or other plates) and incubated overnight at 37° C. in a CO2 incubator or compound and agonist were added at the time of plating.
At the time that cells are plated or following incubation overnight, an AHR activating ligand, such as TCDD, kynurenine, ITE (2-(1H-indole-3-ylcarbonyl)-4-thiazolecarboxylic methyl ester), VAF347, BNF (beta-naphthoflavone), FICZ (6-formylindolo(3,2-b) carbazole or other AHR ligands, was added with or without AHR antagonist.
Cells were incubated for 4, 15 or 24 hours or another time point and then lysed for determination of luciferase activity as a read-out of the AHR activation or inhibition. Luciferase was measured with a commercial kit such as the Promega Luciferase kit or any kit or reagents that provide the luciferin substrate for measuring luciferase activity. The level of luciferase with only activating ligand added was the maximum signal while the luciferase with no ligand was the minimum signal. IC50 values were determined as the concentration which inhibits half of the luciferase activity.

Row | Structure (SMILES) | IC50 [nM]
1 | Cc1cnn2c(NC3Cc4ccc(O)cc4C3)cc(-c3cncc(F)c3)nc12 (centres unmarked) [I-51, 2-[[5-(5-Fluoro-3-pyridyl)-3-methyl-pyrazolo[1,5-a]pyrimidin-7-yl]amino]indan-5-ol] | < 500
2 | Oc1ccc2c(c1)CC(Nc1cc(-c3cncc(F)c3)nc3ccnn13)C2 (centres unmarked) [I-52, 2-[[5-(5-Fluoro-3-pyridyl)pyrazolo[1,5-a]pyrimidin-7-yl]amino]indan-5-ol] | 500 to 1000
3 | N#Cc1cncc(-c2nc(NCCc3c[nH]c4ccccc34)cc(OC3CCCC3)n2)c1 [I-53, 5-[4-(Cyclopentoxy)-6-[2-(1H-indol-3-yl)ethylamino]pyrimidin-2-yl]pyridine-3-carbonitrile] | < 500
4 | CC(C)Oc1cc(NCCc2c[nH]c3ccccc23)nc(-c2cncc(C#N)c2)n1 [I-54, 5-[4-[2-(1H-indol-3-yl)ethylamino]-6-isopropoxy-pyrimidin-2-yl]pyridine-3-carbonitrile] | < 500
5 | O=C(c1cnn2c(NCCc3c[nH]c4ccccc34)cc(-c3cncc(F)c3)nc12)N1CCCCC1 [I-55, [5-(5-Fluoro-3-pyridyl)-7-[2-(1H-indol-3-yl)ethylamino]pyrazolo[1,5-a]pyrimidin-3-yl]-(1-piperidyl)methanone] | < 500
6 | CN(C)C(=O)c1cnn2c(NCCc3c[nH]c4ccccc34)cc(-c3cncc(F)c3)nc12 [I-56, 5-(5-Fluoro-3-pyridyl)-7-[2-(1H-indol-3-yl)ethylamino]-N,N-dimethyl-pyrazolo[1,5-a]pyrimidine-3-carboxamide] | < 500
7 | O=C(c1cnn2c(NCCc3c[nH]c4ccccc34)cc(-c3cncc(F)c3)nc12)N1CCNCC1 [I-58, [5-(5-Fluoro-3-pyridyl)-7-[2-(1H-indol-3-yl)ethylamino]pyrazolo[1,5-a]pyrimidin-3-yl]-piperazin-1-yl-methanone] | > 1500
8 | Fc1cncc(-c2nc(NCCc3c[nH]c4ccccc34)cc(N3CCNCC3)n2)c1 [I-60, 2-(5-Fluoro-3-pyridyl)-N-[2-(1H-indol-3-yl)ethyl]-6-piperazin-1-yl-pyrimidin-4-amine] | 500 to 1000
9 | CNC(=O)c1cnn2c(NCCc3c[nH]c4ccccc34)cc(-c3cncc(F)c3)nc12 [I-61, 5-(5-Fluoro-3-pyridyl)-7-[2-(1H-indol-3-yl)ethylamino]-N-methyl-pyrazolo[1,5-a]pyrimidine-3-carboxamide] | < 500
10 | Fc1cncc(-c2nc(NCCc3c[nH]c4ccccc34)cc(N3CCCCC3)n2)c1 [I-62, 2-(5-Fluoro-3-pyridyl)-N-[2-(1H-indol-3-yl)ethyl]-6-(1-piperidyl)pyrimidin-4-amine] | < 500
11 | CN(C)c1cc(NCCc2c[nH]c3ccccc23)nc(-c2cncc(F)c2)n1 [I-63, 2-(5-Fluoro-3-pyridyl)-N6-[2-(1H-indol-3-yl)ethyl]-N4,N4-dimethyl-pyrimidine-4,6-diamine] | < 500
12 | Fc1cncc(-c2nc(NCCc3c[nH]c4ccccc34)cc(N3CCOCC3)n2)c1 [I-64, 2-(5-Fluoro-3-pyridyl)-N-[2-(1H-indol-3-yl)ethyl]-6-morpholino-pyrimidin-4-amine] | < 500
13 | Cc1[nH]c2c(F)cccc2c1CCNc1cc(-c2cncc(F)c2)nc2c(C(C)C)cnn12 [I-66, N-[2-(7-fluoro-2-methyl-1H-indol-3-yl)ethyl]-5-(5-fluoro-3-pyridyl)-3-isopropyl-pyrazolo[1,5-a]pyrimidin-7-amine] | < 500
14 | Cc1[nH]c2ccc(F)cc2c1CCNc1nc(-c2cncc(F)c2)nc2c1ncn2C(C)C [I-69, N-[2-(5-Fluoro-2-methyl-1H-indol-3-yl)ethyl]-2-(5-fluoro-3-pyridyl)-9-isopropyl-purin-6-amine] | < 500
15 | Cc1[nH]c2c(F)cccc2c1CCNc1nc(-c2cncc(F)c2)nc2c1ncn2C(C)C [I-71, N-[2-(7-Fluoro-2-methyl-1H-indol-3-yl)ethyl]-2-(5-fluoro-3-pyridyl)-9-isopropyl-purin-6-amine] | < 500
16 | Cc1[nH]c2c(F)cc(F)cc2c1CCNc1cc(OC(C)C)nc(-c2cncc(F)c2)n1 [I-74, N-[2-(5,7-Difluoro-2-methyl-1H-indol-3-yl)ethyl]-2-(5-fluoro-3-pyridyl)-6-isopropoxy-pyrimidin-4-amine] | 500 to 1000
17 | CC(C)c1cnn2c(N[C@H]3CCc4[nH]c5ccccc5c4C3)cc(-c3cncc(F)c3)nc12 [I-75b, (3S)—N-[5-(5-Fluoro-3-pyridyl)-3-isopropyl-pyrazolo[1,5-a]pyrimidin-7-yl]-2,3,4,9-tetrahydro-1H-carbazol-3-amine] | > 1500
18 | Cc1[nH]c2ccccc2c1CCNc1nc(-c2cncc(F)c2)nc2c1ncn2C(C)C [I-79, 2-(5-Fluoro-3-pyridyl)-9-isopropyl-N-[2-(2-methyl-1H-indol-3-yl)ethyl]purin-6-amine] | < 500
19 | CC(C)Oc1nc(NCCc2c[nH]c3ccccc23)cc(-c2cncc(F)c2)n1 [I-80, 6-(5-Fluoro-3-pyridyl)-N-[2-(1H-indol-3-yl)ethyl]-2-isopropoxy-pyrimidin-4-amine] | 500 to 1000
20 | Cc1nn2c(NCCc3c[nH]c4ccccc34)cc(-c3cncc(F)c3)nc2c1C(C)C [I-83, 5-(5-Fluoro-3-pyridyl)-N-[2-(1H-indol-3-yl)ethyl]-3-isopropyl-2-methyl-pyrazolo[1,5-a]pyrimidin-7-amine] | < 500
21 | Cc1nn2c(NCCc3c(C)[nH]c4c(F)cc(F)cc34)cc(-c3cncc(F)c3)nc2c1C(C)C [I-84, N-[2-(5,7-Difluoro-2-methyl-1H-indol-3-yl)ethyl]-5-(5-fluoro-3-pyridyl)-3-isopropyl-2-methyl-pyrazolo[1,5-a]pyrimidin-7-amine] | > 1500
22 | Cc1[nH]c2c(F)cc(F)cc2c1CCNc1cc(-c2cncc(F)c2)nc2ccnn12 [I-85, N-(2-(5,7-Difluoro-2-methyl-1H-indol-3-yl)ethyl)-5-(5-fluoropyridin-3-yl)pyrazolo[1,5-a]pyrimidin-7-amine] | 500 to 1000
23 | Fc1cncc(-c2cc(NCCc3c[nH]c4ccccc34)n3ncc(C4CC4)c3n2)c1 [I-86, 3-Cyclopropyl-5-(5-fluoro-3-pyridyl)-N-[2-(1H-indol-3-yl)ethyl]pyrazolo[1,5-a]pyrimidin-7-amine] | < 500
24 | Cc1[nH]c2c(F)cc(F)cc2c1CCNc1cc(-c2cncc(F)c2)nc2c(C3CC3)cnn12 [I-87, 3-Cyclopropyl-N-(2-(5,7-difluoro-2-methyl-1H-indol-3-yl)ethyl)-5-(5-fluoropyridin-3-yl)pyrazolo[1,5-a]pyrimidin-7-amine] | < 500
25 | CC(C)Oc1cc(NCCc2c[nH]c3c(F)cc(F)cc23)nc(-c2cncc(F)c2)n1 [I-88, N-[2-(5,7-Difluoro-1H-indol-3-yl)ethyl]-2-(5-fluoro-3-pyridyl)-6-isopropoxy-pyrimidin-4-amine] | 500 to 1000
26 | Cc1[nH]c2ccccc2c1CCNc1cc(-c2cncc(F)c2)nc2c(C(C)C)cnn12 [I-89, 5-(5-fluoro-3-pyridyl)-3-isopropyl-N-[2-(2-methyl-1H-indol-3-yl)ethyl]pyrazolo[1,5-a]pyrimidin-7-amine] | < 500
27 | Cc1[nH]c2c(F)cc(F)cc2c1CCNc1cc(-c2cncc(F)c2)nc2c(C(C)(C)C)cnn12 [I-91, 3-tert-Butyl-N-[2-(5,7-difluoro-2-methyl-1H-indol-3-yl)ethyl]-5-(5-fluoro-3-pyridyl)pyrazolo[1,5-a]pyrimidin-7-amine] | < 500
28 | CC(C)N(C)c1cc(NCCc2c[nH]c3ccccc23)nc(-c2cncc(F)c2)n1 [I-93, 2-(5-Fluoro-3-pyridyl)-N6-[2-(1H-indol-3-yl)ethyl]-N4-isopropyl-N4-methyl-pyrimidine-4,6-diamine] | < 500
29 | CC(C)c1cnn2c(N[C@@H]3CCc4ccc(O)cc4C3)cc(-c3cncc(F)c3)nc12 [I-94a, (3R)-3-[[5-(5-fluoro-3-pyridyl)-3-isopropyl-pyrazolo[1,5-a]pyrimidin-7-yl]amino]tetralin-6-ol] | > 1500
